The target of series [1] is T1, hMAO-B (Homo sapiens, UniProt P27338).
T1 sequence (P27338 1-520): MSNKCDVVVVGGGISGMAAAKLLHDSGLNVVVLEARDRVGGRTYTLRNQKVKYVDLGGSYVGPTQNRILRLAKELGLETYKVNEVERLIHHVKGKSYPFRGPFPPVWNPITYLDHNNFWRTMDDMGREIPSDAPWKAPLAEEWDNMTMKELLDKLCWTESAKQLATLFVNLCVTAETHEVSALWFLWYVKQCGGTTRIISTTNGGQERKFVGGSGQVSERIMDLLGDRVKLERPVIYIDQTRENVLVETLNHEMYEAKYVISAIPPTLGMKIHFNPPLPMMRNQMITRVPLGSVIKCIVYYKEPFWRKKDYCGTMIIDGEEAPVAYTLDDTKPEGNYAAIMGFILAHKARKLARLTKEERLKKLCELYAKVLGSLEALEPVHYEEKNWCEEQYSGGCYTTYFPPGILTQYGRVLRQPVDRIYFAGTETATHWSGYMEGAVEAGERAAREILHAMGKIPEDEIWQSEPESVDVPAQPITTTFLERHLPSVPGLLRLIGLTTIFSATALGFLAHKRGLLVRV
Briefly: hMAO-B inhibitory activity assay (recombinant enzyme, benzylamine substrate).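 As to all read-outs here: benzylamine used at 0.3 mM as hMAO-B substrate, compounds first screened at 10 µM, hMAO-A assayed with 0.06 mM kynuramine for the selectivity ratio.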 Particulars: for SI (selectivity index for hMAO-B as compared with hMAO-A): IC50 of hMAO-A/IC50 of hMAO-B; for remaining activity at 10 µM: read-out: Residual activity at 10 µM (%) hMAO-B.

The target in another series is T2, hMAO-A (Homo sapiens, UniProt P21397).
T2 construct: purchased Sigma-Aldrich (St. Louis, MO, USA)
T2 sequence (P21397 1-527): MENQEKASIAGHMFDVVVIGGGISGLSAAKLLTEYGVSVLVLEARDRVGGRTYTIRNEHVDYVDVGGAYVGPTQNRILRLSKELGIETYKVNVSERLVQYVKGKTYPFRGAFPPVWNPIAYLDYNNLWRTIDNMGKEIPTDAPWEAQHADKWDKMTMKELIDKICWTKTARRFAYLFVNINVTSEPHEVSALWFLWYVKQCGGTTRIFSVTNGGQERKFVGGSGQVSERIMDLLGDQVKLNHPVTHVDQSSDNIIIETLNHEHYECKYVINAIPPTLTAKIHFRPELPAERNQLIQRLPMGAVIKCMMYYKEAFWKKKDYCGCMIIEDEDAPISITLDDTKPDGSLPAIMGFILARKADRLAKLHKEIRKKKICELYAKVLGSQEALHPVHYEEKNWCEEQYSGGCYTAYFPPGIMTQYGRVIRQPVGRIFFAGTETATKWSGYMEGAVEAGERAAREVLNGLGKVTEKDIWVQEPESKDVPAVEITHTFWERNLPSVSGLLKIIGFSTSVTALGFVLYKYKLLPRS
Briefly: hMAO-A inhibitory activity assay (recombinant enzyme, kynuramine substrate). Type of series: biochemical. Particulars: kynuramine 0.06 mM; for remaining activity at 10 µM: 10 µM compound, read-out: Residual activity at 10 µM (%) hMAO-A.

The target of series [2] is T1, hMAO-B.
In series [3] the target is T1, hMAO-B. Briefly: Enzyme kinetic study of hMAO-B inhibition (Lineweaver–Burk and secondary plots). Details: purchased Sigma-Aldrich (St. Louis, MO, USA). The conditions noted are these: for Type of hMAO-B inhibition: Lineweaver–Burk plots; for Ki: secondary plots, five substrate and three inhibitor concentrations. It is filed as biochemical.
Series [4] in a line: Parallel artificial membrane permeation assay (PAMPA) for BBB permeation. Type of series: in vitro ADME. The conditions noted are these: for Papp: pH 7.4, read-out: Experimental Pe. (In general: PAMPA measures passive passage across an artificial lipid membrane.)
In series [5] the target is T1, hMAO-B. Briefly: Reversibility analysis of hMAO-B inhibition by dialysis. Further details: purchased Sigma-Aldrich (St. Louis, MO, USA). The conditions noted are these: for Reversibility of hMAO-B inhibition: dialysis; for Relative activity of hMAO-B, undialyzed (AU) / Relative activity of hMAO-B, dialyzed (AD): preincubation 30 min at ~2 × IC50 (B10 0.134, B15 0.240, lazabemide 0.220, pargyline 0.280 μM); for Relative activity of hMAO-B, dialyzed (AD): after dialysis. It is filed as biochemical.

Details of series [6]: method as in PMID 26587996. The conditions noted are these: cited from earlier work.

Like-named read-outs stand apart in the source and are kept apart here.

Usually IC50 stands for the concentration at which inhibition is half-maximal. For `O=C(/C=C/c1ccccc1OCc1ccccc1)c1ccc2c(c1)OCO2` [Compound B1], on hMAO-B [1], the IC50 amounted to 1.44 ± 0.149 µM, the “SI (selectivity index for hMAO-B as compared with hMAO-A)” value amounted to 18.677 and the remaining activity at 10 µM turned out to be 35.5 ± 6.05%. On hMAO-A, the remaining activity at 10 µM worked out at 82.6 ± 5.03% and the IC50 was determined as 26.9 ± 4.16 µM.
As for `O=C(/C=C/c1ccc(OCc2ccccc2)cc1)c1ccc2c(c1)OCO2` [Compound B2], the “SI (selectivity index for hMAO-B as compared with hMAO-A)” value on hMAO-B [2] was found to be 21.933. Besides, at hMAO-B [1], the IC50 worked out at 0.626 ± 0.296 µM and the remaining activity at 10 µM was 23.6 ± 0.96%. Also, on hMAO-A, the remaining activity at 10 µM is 53.1 ± 1.58% and the IC50 amounted to 13.7 ± 1.53 µM.
Regarding `O=C(/C=C/c1ccc(OCc2ccccc2)cc1)c1ccc2c(c1)OCCO2` [Compound B3], on hMAO-B [1], the IC50 was determined as 0.261 ± 0.016 µM, the “SI (selectivity index for hMAO-B as compared with hMAO-A)” value came to 54.663 and the remaining activity at 10 µM is 0%. Besides, on hMAO-A, the remaining activity at 10 µM was 58.3 ± 0.84% and the IC50 is 14.3 ± 0.203 µM.
The matching figures for `CS(=O)(=O)c1ccc(C(=O)/C=C/c2ccccc2OCc2ccccc2)cc1` [Compound B4]: 0.233 ± 0.11 µM, 125.915, 16.2 ± 6.49%, 78.2 ± 4.32% and 29.4 ± 2.71 µM.
The corresponding values for `CS(=O)(=O)c1ccc(C(=O)/C=C/c2ccc(OCc3ccccc3)cc2)cc1` [Compound B5] are 0.224 ± 0.082 µM, more than 178.651, 0%, 89.2 ± 4.47% and more than 40 µM.
The matching figures for `CSc1ccc(C(=O)/C=C/c2ccccc2OCc2ccccc2)cc1` [Compound B6]: 6.55 ± 1.34 µM, more than 6.107, 41.3 ± 4.9%, 92 ± 2.93% and more than 40 µM.
For the compound `CSc1ccc(C(=O)/C=C/c2ccc(OCc3ccccc3)cc2)cc1` [Compound B7], at hMAO-B [1], the IC50 was 0.149 ± 0.006 µM, the “SI (selectivity index for hMAO-B as compared with hMAO-A)” value came out at 84.544 and the remaining activity at 10 µM stood at 0%. On hMAO-A, the remaining activity at 10 µM was determined as 58.4 ± 4.48% and the IC50 stood at 12.6 ± 0.898 µM.
The corresponding values for `O=C(/C=C/c1ccccc1OCc1ccccc1)c1ccc(Br)s1` [Compound B8] are 17.9 ± 0.268 µM, more than 2.237, 64.4 ± 1.5%, 92.45 ± 0.49% and more than 40 µM.
The corresponding values for `O=C(/C=C/c1ccc(OCc2ccccc2)cc1)c1ccc(Br)s1` [Compound B9] are 0.236 ± 0.017 µM, 101.551, 0%, 69.1 ± 1.54% and 24 ± 1.44 µM.
Usually Ki stands for a dissociation constant, usually derived from enzyme kinetics or from competition with a known ligand. A lower Ki goes with tighter binding. In the case of `O=C(/C=C/c1ccc(OCc2ccccc2)cc1)c1cccs1` [Compound B10], at hMAO-B [3], the “Type of hMAO-B inhibition” value was “competitive inhibitors of hMAO-B” and the Ki worked out at 0.03 ± 0.001 µM. Also, in series [4], the Pe value entry is recorded as “higher than 4.0 × 10^–6 cm/s”, the “Prediction (CNS permeation)” value was “CNS + (Pe (10^−6 cm/s) > 4.00: CNS + (high permeation))” and the Papp was found to be 4.93 ± 0.13 ×10⁻⁶ cm/s. In addition, on hMAO-B [5], the “Reversibility of hMAO-B inhibition” value is “reversible inhibitors of hMAO-B”; the “Relative activity of hMAO-B, undialyzed (AU)” value is recorded as 44.29%; the “Relative activity of hMAO-B, dialyzed (AD)” value came out at 77.53%. In addition, at hMAO-B [1], the concentration for half-maximal inhibition (IC50) came out at 0.067 ± 0.005 µM, the “SI (selectivity index for hMAO-B as compared with hMAO-A)” value is recorded as 504.791 and the remaining activity at 10 µM amounted to 0%. Moreover, on hMAO-A, the remaining activity at 10 µM amounted to 76.7 ± 3.22% and the IC50 stood at 33.8 ± 6.89 µM.
In the case of `O=C(/C=C/c1ccccc1OCc1ccccc1)c1cccs1` [Compound B11], on hMAO-B [1], the IC50 is 5.78 ± 2.39 µM, the “SI (selectivity index for hMAO-B as compared with hMAO-A)” value is reported as more than 6.915 and the remaining activity at 10 µM was 41.2 ± 0.12%. Further, on hMAO-A, the remaining activity at 10 µM was 81.3 ± 2.92% and the IC50 is more than 40 µM.
Take `O=C(/C=C/c1ccccc1OCc1ccccc1)c1ccc(C(F)(F)F)cc1` [Compound B12]: at hMAO-B [1], the IC50 is 37.6 ± 1.88 µM, the “SI (selectivity index for hMAO-B as compared with hMAO-A)” value is more than 1.065 and the remaining activity at 10 µM stood at 75.4 ± 3.6%. For the same compound, on hMAO-A, the remaining activity at 10 µM stood at 86.7 ± 2.68% and the IC50 was more than 40 µM.
The matching figures for `O=C(/C=C/c1ccc(OCc2ccccc2)cc1)c1ccc(C(F)(F)F)cc1` [Compound B13]: 0.255 ± 0.016 µM, more than 156.617, 1.39 ± 3.27%, 99.1 ± 1.24% and more than 40 µM.
In the case of `CCOc1ccc(C(=O)/C=C/c2ccccc2OCc2ccccc2)cc1` [Compound B14], on hMAO-B [1], the IC50 was found to be 11.3 ± 0.331 µM, the “SI (selectivity index for hMAO-B as compared with hMAO-A)” value is listed as more than 3.525 and the remaining activity at 10 µM came to 51.9 ± 1.31%. In addition, at hMAO-A, the remaining activity at 10 µM came out at 91.2 ± 6.2% and the IC50 was more than 40 µM.
With `CCOc1ccc(C(=O)/C=C/c2ccc(OCc3ccccc3)cc2)cc1` [Compound B15], at hMAO-B [3], the “Type of hMAO-B inhibition” value is listed as “competitive inhibitors of hMAO-B” and the Ki was 0.033 ± 0.001 µM. Moreover, in series [4], the Pe value entry is on record as “higher than 4.0 × 10^–6 cm/s”, the “Prediction (CNS permeation)” value is “CNS + (Pe (10^−6 cm/s) > 4.00: CNS + (high permeation))” and the Papp turned out to be 4.09 ± 0.24 ×10⁻⁶ cm/s. Besides, at hMAO-B [5], the “Reversibility of hMAO-B inhibition” value was “reversible inhibitors of hMAO-B”; the “Relative activity of hMAO-B, undialyzed (AU)” value amounted to 41.68%; the “Relative activity of hMAO-B, dialyzed (AD)” value is given as 78.78%. Besides, at hMAO-B [1], the 50% inhibitory concentration (IC50) came out at 0.12 ± 0.01 µM, the “SI (selectivity index for hMAO-B as compared with hMAO-A)” value turned out to be 287.600 and the remaining activity at 10 µM was determined as 0%. In addition, on hMAO-A, the remaining activity at 10 µM is 75.9 ± 3.1% and the IC50 was determined as 34.5 ± 3.54 µM.
With `C[C@H](NCc1ccc(OCc2cccc(F)c2)cc1)C(N)=O` [Safinamide], the bioavailability entry in series [6] is reported as “about 95%”.
With `C#CCN(C)[C@H](C)Cc1ccccc1` [Selegiline, reference compound], the “Prediction (CNS permeation)” value in series [4] is listed as “CNS + (Pe (10^−6 cm/s) > 4.00: CNS + (high permeation))”.

The record behind these values is publication PMC9794710, “Introduction of benzyloxy pharmacophore into aryl/heteroaryl chalcone motifs as a new class of monoamine oxidase B inhibitors” (Scientific Reports, 2022).
